The results in this text go back to patent US7501418B2, “Fused heterocyclic isoxazoline derivatives and their use as anti-depressants” (Janssen Pharmaceutica, N.V., priority 2002, dated 2009).

In one data set the target is T1, hα2A receptor (Homo sapiens, UniProt P08913).
T1 construct: expressed in transfected cells
T1 sequence (P08913 1-465): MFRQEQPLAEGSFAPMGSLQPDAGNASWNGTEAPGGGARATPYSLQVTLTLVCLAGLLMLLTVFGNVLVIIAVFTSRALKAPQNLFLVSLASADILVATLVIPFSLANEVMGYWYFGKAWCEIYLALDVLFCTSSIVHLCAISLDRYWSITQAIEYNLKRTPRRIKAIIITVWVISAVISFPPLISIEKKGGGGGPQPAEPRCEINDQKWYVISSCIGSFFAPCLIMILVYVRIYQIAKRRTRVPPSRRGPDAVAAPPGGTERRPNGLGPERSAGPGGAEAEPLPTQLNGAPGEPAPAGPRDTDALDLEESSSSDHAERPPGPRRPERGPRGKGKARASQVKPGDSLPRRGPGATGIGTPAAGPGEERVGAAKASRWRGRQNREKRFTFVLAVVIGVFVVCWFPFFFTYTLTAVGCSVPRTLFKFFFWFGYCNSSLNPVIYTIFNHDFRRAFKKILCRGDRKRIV
The experiment in a line: Radioligand binding experiment for α2A-adrenergic receptor ([3H]-raulwolscine). Conditions: CHO cell membranes with human α2A receptor, [3H]raulwolscine 1 nM. How it is done: (§1) In general, a low concentration of a radioligand with a high binding affinity for a particular receptor or transporter is incubated with a sample of a tissue preparation enriched in a particular receptor or transporter or with a preparation of cells expressing cloned human receptors in a buffered medium. During the incubation, the radioligand binds to the receptor or transporter. When equilibrium of binding is reached, the receptor bound radioactivity is separated from the non-bound radioactivity, and the receptor- or transporter-bound activity is counted. The interaction of the test compounds with the receptor is assessed in competition binding experiments. Various concentrations of the test compound are added to the incubation mixture containing the receptor- or transporter preparation and the radioligand. The test compound in proportion to its binding affinity and its concentration inhibits binding of the radioligand. The radioligand used for hα2A, hα2B and hα2C receptor binding was [^3H]-raulwolscine and for the h5-HT transporter was [^3H]paroxetine. CHO cells, stabile transfected with human adrenergic-α2A-, -α2B or α2C receptor cDNA, were cultured in Dulbecco's Modified Eagle's Medium (DMEM)/Nutrient mixture Ham's F12 (ratio 1:1)(Gibco, Gent-Belgium) supplemented with 10% heat inactivated fetal calf serum (Life Technologies, Merelbeke-Belgium) and antibiotics (100 IU/ml penicillin G, 100 μg/ml streptomycin sulphate, 110 μg/ml pyruvic acid and 100 μg/ml L-glutamine). One day before collection, cells were induced with 5 mM sodiumbutyrate. Upon 80-90% of confluence, cells were scraped in phosphate buffered saline without Ca^2+ and Mg^2+ and collected by centrifugation at 1500×g for 10 min. The cells were homogenised in Tris-HCl 50 mM using an Ultraturrax homogenizer and centrifuged for 10 min at 23,500×g. The pellet was washed once by resuspension and rehomogenization and the final pellet was resuspended in Tris-HCl, divided in 1 ml aliquots and stored at −70° C. Membranes were thawed and re-homogenized in incubation buffer (glycylglycine 25 mM, pH 8.0). In a total volume of 500 μl, 2-10 μg protein was incubated with [^3H]raulwolscine (NET-722) (New England Nuclear, USA) (1 nM final concentration) with or without competitor for 60 min at 25° C. followed by rapid filtration over GF/B filter using a Filtermate196 harvester (Packard, Meriden, Conn.). Filters were rinsed extensively with ice-cold rinsing buffer (Tris-HCl 50 mM pH 7.4). Filter-bound radioactivity was determined by scintillation counting in a Topcount (Packard, Meriden, Conn.) and results were expressed as counts per minute (cpm). Non-specific binding was determined in the presence of 1 μM oxymetazoline for hα2A- and hα2B receptors and 1 μM spiroxatrine for hα2C receptors. Data from assays in the presence of compound were calculated as a percentage of total binding measured in the absence of test compound. Inhibition curves, plotting percent of total binding versus the log value of the concentration of the test compound, were automatically generated, and sigmoidal inhibition curves were fitted using non-linear regression. The pIC50 values of test compounds were derived from individual curves.

The target of a further data set is T2, hα2B receptor (Homo sapiens, UniProt P18089).
T2 construct: expressed in transfected cells
T2 sequence (P18089 1-450): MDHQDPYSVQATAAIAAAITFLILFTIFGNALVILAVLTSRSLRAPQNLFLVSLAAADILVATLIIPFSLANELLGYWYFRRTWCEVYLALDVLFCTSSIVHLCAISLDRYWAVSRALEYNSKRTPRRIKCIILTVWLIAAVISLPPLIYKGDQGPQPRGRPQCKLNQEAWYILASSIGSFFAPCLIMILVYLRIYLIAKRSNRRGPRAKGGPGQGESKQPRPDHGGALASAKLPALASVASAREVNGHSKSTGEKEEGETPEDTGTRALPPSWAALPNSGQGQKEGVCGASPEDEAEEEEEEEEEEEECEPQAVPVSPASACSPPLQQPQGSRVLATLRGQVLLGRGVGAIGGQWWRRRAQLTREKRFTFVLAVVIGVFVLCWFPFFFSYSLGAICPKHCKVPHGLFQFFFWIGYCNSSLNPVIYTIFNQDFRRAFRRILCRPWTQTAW
The experiment in a line: Radioligand binding experiment for α2B-adrenergic receptor ([3H]-raulwolscine). The settings on record: CHO cell membranes with human α2B receptor, [3H]raulwolscine 1 nM. How it is done: as §1

Another data set addresses T3, hα2C receptor (Homo sapiens, UniProt P18825).
T3 construct: expressed in transfected cells
T3 sequence (P18825 1-462): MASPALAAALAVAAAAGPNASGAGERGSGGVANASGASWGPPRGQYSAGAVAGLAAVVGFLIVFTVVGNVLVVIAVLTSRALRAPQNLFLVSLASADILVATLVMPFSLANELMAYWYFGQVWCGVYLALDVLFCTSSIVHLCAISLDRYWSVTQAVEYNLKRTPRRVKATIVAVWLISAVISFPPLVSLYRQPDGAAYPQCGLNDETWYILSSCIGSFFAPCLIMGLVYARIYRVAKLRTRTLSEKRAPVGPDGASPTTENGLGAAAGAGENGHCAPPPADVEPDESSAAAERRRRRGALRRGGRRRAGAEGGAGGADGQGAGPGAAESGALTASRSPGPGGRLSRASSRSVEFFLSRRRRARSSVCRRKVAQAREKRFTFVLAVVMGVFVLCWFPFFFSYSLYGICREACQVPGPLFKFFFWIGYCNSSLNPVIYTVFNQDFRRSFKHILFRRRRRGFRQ
The experiment in a line: Radioligand binding experiment for α2C-adrenergic receptor ([3H]-raulwolscine). Conditions: CHO cell membranes with human α2C receptor, [3H]raulwolscine 1 nM. How it is done:
as §1

The target in another data set is T4, h5-HT transporter (Homo sapiens, UniProt P31645).
T4 construct: Human platelet membranes (Oceanix Biosciences Corporation, Hanover, Md., USA) were thawed; tissue Oceanix Biosciences Corporation, Hanover, Md., USA; host or cells: human platelet membranes
T4 sequence (P31645 whole entry): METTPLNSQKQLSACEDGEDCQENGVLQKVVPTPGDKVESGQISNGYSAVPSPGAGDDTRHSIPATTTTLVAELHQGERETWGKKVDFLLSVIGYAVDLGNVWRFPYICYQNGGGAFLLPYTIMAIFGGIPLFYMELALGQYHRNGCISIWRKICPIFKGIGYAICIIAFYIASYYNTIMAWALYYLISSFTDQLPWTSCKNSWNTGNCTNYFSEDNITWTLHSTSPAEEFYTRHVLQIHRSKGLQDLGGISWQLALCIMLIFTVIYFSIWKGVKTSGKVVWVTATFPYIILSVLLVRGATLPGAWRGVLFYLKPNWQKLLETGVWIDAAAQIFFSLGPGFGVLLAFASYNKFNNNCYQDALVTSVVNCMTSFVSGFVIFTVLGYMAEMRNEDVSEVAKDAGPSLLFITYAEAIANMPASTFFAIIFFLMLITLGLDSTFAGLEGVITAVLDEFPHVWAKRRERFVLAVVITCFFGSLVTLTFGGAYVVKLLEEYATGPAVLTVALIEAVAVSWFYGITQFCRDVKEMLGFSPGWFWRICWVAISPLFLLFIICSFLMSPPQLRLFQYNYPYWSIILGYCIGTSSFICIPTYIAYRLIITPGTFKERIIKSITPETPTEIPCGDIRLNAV
Briefly: Radioligand binding experiment for 5-HT transporter ([3H]paroxetine). Conditions: human platelet membranes, [3H]paroxetine 0.5 nM. As to the method:
In general, a low concentration of a radioligand with a high binding affinity for a particular receptor or transporter is incubated with a sample of a tissue preparation enriched in a particular receptor or transporter or with a preparation of cells expressing cloned human receptors in a buffered medium. During the incubation, the radioligand binds to the receptor or transporter. When equilibrium of binding is reached, the receptor bound radioactivity is separated from the non-bound radioactivity, and the receptor- or transporter-bound activity is counted. The interaction of the test compounds with the receptor is assessed in competition binding experiments. Various concentrations of the test compound are added to the incubation mixture containing the receptor- or transporter preparation and the radioligand. The test compound in proportion to its binding affinity and its concentration inhibits binding of the radioligand. The radioligand used for hα2A, hα2B and hα2C receptor binding was [^3H]-raulwolscine and for the h5-HT transporter was [^3H]paroxetine. Human platelet membranes (Oceanix Biosciences Corporation, Hanover, Md., USA) were thawed, diluted in buffer (Tris-HCl 50 mM, 120 mM NaCl and 5 mM KCl) and quickly (max 3 s) homogenised with an Ultraturrax homogenizer. In a total volume of 250 μL, 50-100 μg protein was incubated with [^3H]paroxetine (NET-869) (New England Nuclear, USA) (0.5 nM final concentration) with or without competitor for 60 min at 25 ° C. Incubation was stopped by rapid filtration of the incubation mixture over GF/B filters, pre-wetted with 0.1% polyethyleneamine, using a Filtermate196 harvester (Packard, Meriden, Conn.). Filters were rinsed extensively with ice-cold buffer and radioactivity on the filters was counted in a Topcount liquid scintillation counter (Packard, Meriden, Conn.). Data were expressed as cpm. Imipramine (at 1 μM final concentration) was used to determine the non-specific binding. Data from assays in the presence of compound were calculated as a percentage of total binding measured in the absence of test compound. Inhibition curves, plotting percent of total binding versus the log value of the concentration of the test compound, were automatically generated, and sigmoidal inhibition curves were fitted using non-linear regression. The pIC50 values of test compounds were derived from individual curves.

Where [1] appears, read: read-out: hα2A (pIC50) (converted).
[2] abbreviates: read-out: hα2C (pIC50) (converted).
[3] abbreviates: read-out: 5-HTT (pIC50) (converted).

The structures appear in SMILES notation. Several values for one entry are separate records, joined by “and”; a condition that tells them apart may be missing. Identical values can stand only once. Counter-ions that a name gives are not always drawn. Like-named read-outs stand apart in the source and are kept apart here.

Molecule `C/C(=C\c1ccccc1)CN1CCN(CC2ON=C3c4cc5ccn(CCO)c5cc4OCC32)CC1` (single isomer, unassigned) [Compound 17, B-2-{3-[4-(2-methyl-3-phenyl-allyl)-piperazin-1-ylmethyl]-3a,4-dihydro-3H-2,5-dioxa-1,7-diaza-dicyclopenta[a,g]naphthalen7-yl}-ethanol] registered a melting point of 167.5 to 170.5 °C. Also, the IC50 on hα2A receptor (hα2A (pIC50)) is 10 nM. In addition, the IC50 at hα2B receptor (hα2B (pIC50)) was 5.01 nM. For the same molecule, the IC50 at hα2C receptor (hα2C (pIC50)) is 2 nM. Besides, the IC50 at h5-HT transporter (5-HTT (pIC50)) was 501 nM.

Consider `C/C(=C\c1ccccc1)CN1CCN(CC2ON=C3c4ccncc4OCC32)CC1` (stereo not shown) (as salt: oxalate) [Compound 18, 3-[4-(2-methyl-3-phenyl-allyl)-piperazin-1-ylmethyl]-3a,4-dihydro-3H-2,5-dioxa-1,7-diaza-cyclopenta[a]naphthalene oxalate salt (1/1)], for which the melting point fell in the range of 216.8 to 220.5 °C.

Turning to `c1ccc2cc(CN3CCN(CC4ON=C5c6cc7cc[nH]c7cc6OCC54)CC3)ccc2c1` (racemic) [Compound 4], at hα2A receptor, the “hα2A (pIC50)” value turned out to be 7.6. Further, on hα2B receptor, the “hα2B (pIC50)” value is given as 7.3. The “hα2C (pIC50)” value at hα2C receptor is given as 8.4. Moreover, at h5-HT transporter, the “5-HTT (pIC50)” value is 8.8.

Turning to `C/C(=C\c1ccc(F)cc1)CN1CCN(CC2ON=C3c4sccc4OCC32)CC1` (stereo not shown) [Compound 27, 3-{4-[3-(4-fluoro-pheny)-2-methyl-allyl]-piperazin-1-ylmethyl}-3a,4-dihydro-3H-2,5-dioxa-8-thia-1-aza-as-indacene], the melting point fell in the range of 142.3 to 146 °C. For the same molecule, the IC50 on hα2A receptor (setting [1]) is 2 nM. The IC50 on hα2C receptor (setting [2]) is 7.94 nM. Further, the IC50 on h5-HT transporter (setting [3]) was 79.4 nM.

On to `C/C(=C\c1ccccc1)CN1CCN(CC2ON=C3c4ccncc4OCC32)CC1` (stereo not shown) [Compound 18, 3-[4-(2-methyl-3-phenyl-allyl)-piperazin-1-ylmethyl]-3a,4-dihydro-3H-2,5-dioxa-1,7-diaza-cyclopenta[a]naphthalene oxalate salt (1/1)], for which the IC50 at hα2A receptor (setting [1]) is 1.26 nM and 1.58 nM; on hα2B receptor (read-out: hα2B (pIC50) (converted)), 1.58 nM; at hα2C receptor (setting [2]), 1.58 nM; at h5-HT transporter (setting [3]) it was 200 nM and 31.6 nM.

For the molecule `C/C(=C\c1ccccc1)CN1CCN(CC2ON=C3c4cc5ccn(CCO)c5cc4OCC32)CC1` (stereo not shown) [Compound 8], the IC50 at hα2A receptor (hα2A (pIC50)) is 15.8 nM; on hα2B receptor (hα2B (pIC50)) it was 5.01 nM; at hα2C receptor (hα2C (pIC50)), 2 nM; on h5-HT transporter (5-HTT (pIC50)) it was 3.98 nM.

For the molecule `C/C(=C\c1ccc(F)cc1)CN1CCN(CC2ON=C3c4ncccc4OCC32)CC1` (stereo not shown) [Compound 24, 3-{4-[3-(4-fluoro-phenyl)-2-methyl-allyl]-piperazin-1-ylmethyl}-3a,4-dihydro-3H-2,5-dioxa-1,9-diaza-cyclopenta[a]naphthalene], the melting point is 145.6 to 152.3 °C. Moreover, the IC50 at hα2A receptor (setting [1]) was 6.31 nM. Also, the IC50 on hα2C receptor (setting [2]) was 31.6 nM. The IC50 on h5-HT transporter (setting [3]) was 200 nM.

Consider `C/C(=C\c1cccc(F)c1)CN1CCN(CC2ON=C3c4cc5cc[nH]c5cc4OCC32)CC1` (racemic) [Compound 2], for which the “hα2A (pIC50)” value at hα2A receptor is 8.1. For the same molecule, the “hα2B (pIC50)” value on hα2B receptor came out at 8.3. Moreover, the “hα2C (pIC50)” value on hα2C receptor turned out to be 9.0. For the same molecule, on h5-HT transporter, the “5-HTT (pIC50)” value is reported as 8.3.

Turning to `C/C(=C\c1ccc(F)cc1)CN1CCN(CC2ON=C3c4cc5cc[nH]c5cc4OCC32)CC1` (racemic) [Compound 3], the “hα2A (pIC50)” value at hα2A receptor is listed as 7.8. The “hα2B (pIC50)” value on hα2B receptor came out at 7.6. For the same molecule, the “hα2C (pIC50)” value at hα2C receptor is 8.7. The “5-HTT (pIC50)” value at h5-HT transporter came to 8.2.

The melting point is the temperature, or range, at which the solid turns liquid.
